Results reported in patent EP0166609A2, “Aryl derivatives of heterobicyclic compounds” (THE WELLCOME FOUNDATION LIMITED, priority 1984, dated 1986).

Tested on: anaesthetised, open-chest beagle dogs
Test: in vivo inotropic and vasodilatory activity, bolus intravenous injection
Conditions: for ED30 / ED50: Canis lupus familiaris, bolus intravenous injection; for ED30: read-out: ED30D.B.P. (effective intravenous dose to produce a 30% decrease in diastolic blood pressure); for ED50: read-out: ED50L.V. dP/dt (effective intravenous dose of compound to produce a 50% increase in L.V. dP/dt); for Selectivity ED50L.V. dP/dt / ED30D.B.P. / Tr (duration of inotropic response): intravenous; for Tr (duration of inotropic response): time in which a 50% increase in L.V. dp/dt would return to pre-dose levels
Protocol: Determination of in vivo Inotropic and Vasodilatory Activity Compounds according to the present invention were tested in vivo in comparison with the compound 2-(2-methoxy-4-methylsulphinylphenyl)imidazo[1,2-a]pyrazine (hereinafter referred to as compound 'X' disclosed in UK patent specification No. 2 132 203 A. The compounds were tested in anaesthetised, open-chest beagle dogs by bolus intravenous injection to produce a dose-related positive inotropic stimulation (as measured by the increase in the maximum rate of change of the left ventricular pressure -,L.V. dp/dt) over the dose range of 0.003 - 3.0 mg/kg. This was accompanied by a dose-related increase in aortic blood flow, and a fall in systemic blood pressure (see Table below). In these preparations, the duration of inotropic response was estimated by measuring the time in which a 50% increase in L.V. dp/dt would return to pre-dose levels. The duration is shown in the table below and for some of the compounds is given as a range. [table]

COc1cc([S+](C)[O-])ccc1-c1cn2ccnc(OC)c2n1 (stereo not drawn) [Example 3, 8-methoxy-2-(2-methoxy-4-methylsulphinylphenyl)imidazo[1,2-a]pyrazine]
ED30: 1.17 mg/kg | ED50: 0.91 mg/kg | Selectivity ED50L.V. dP/dt / ED30D.B.P.: 0.08 | Tr (duration of inotropic response): 60 min

COc1cc(C(N)=O)ccc1-c1cn2ccncc2n1 [Example 1, 2-(2-Methoxy-4-carbamoylphenyl)-imidazo[1,2-a]pyrazine]
ED30: 0.05 mg/kg | ED50: 0.02 mg/kg | Selectivity ED50L.V. dP/dt / ED30D.B.P.: 0.4 | Tr (duration of inotropic response): >30 min

COc1cc(C(C)=O)ccc1-c1cn2ccncc2n1 [Example 7, 2-(2-methoxy-4-acetylphenyl)imidazo[1,2-a]pyrazine]
ED30: 0.1 mg/kg | ED50: 0.03 mg/kg | Selectivity ED50L.V. dP/dt / ED30D.B.P.: 0.30 | Tr (duration of inotropic response): 10 min

COc1cc(C(N)=O)ccc1-c1cn2ccnc(OC)c2n1.Cl [Example 5, 2-(2-methoxy-4-carbamoylphenyl)-8-methoxy-imidazo[1,2-a]pyrazine hydrochloride]
ED30: 0.15 mg/kg | ED50: 0.06 mg/kg | Selectivity ED50L.V. dP/dt / ED30D.B.P.: 0.39 | Tr (duration of inotropic response): 30 to 45 min

COc1cc(OS(C)(=O)=O)ccc1-c1cn2ccnc(OC)c2n1 [Example 4, 8-methoxy-2-(2-methoxy-4-methylsulphonyloxyphenyl)imidazo[1,2-a]pyrazine]
ED30: 0.06 mg/kg | ED50: 0.07 mg/kg | Selectivity ED50L.V. dP/dt / ED30D.B.P.: 1.22 | Tr (duration of inotropic response): 45 to 60 min

COc1cc([S+](C)[O-])ccc1-c1cn2ccncc2n1 (stereo not drawn) [X, 2-(2-methoxy-4-methylsulphinylphenyl)imidazo[1,2-a]pyrazine, reference compound]
ED30: 0.028 mg/kg | ED50: 0.75 mg/kg | Selectivity ED50L.V. dP/dt / ED30D.B.P.: 26.8 | Tr (duration of inotropic response): 5 min
